Reference: PubChem BioAssay AID222 (DTP/NCI, 2004)
Several values for one entry are separate records, joined by “and”; a condition that tells them apart may be missing. Equal values may be shown once. Inconclusive results and toxic doses are left out. The calls were made as follows: active = survival T/C of 150% or more; inactive = T/C below 125% in these data. Starred links: 1 amine or outer side, 2 acyl side, 3 side chain; linkers in the order of their positions; H or OH if unused. Positions of bridges follow the written chain, without caps; N, C: chain ends. Non-standard residues stand in square brackets, D forms with d. Residues, ends and D or L forms follow the SMILES beside them. Chains are numbered I, II in the order given. Actinocin(9to1) = Cc1c2oc3c(C)ccc(C(=O)[*:1])c3nc-2c(C(=O)[*:2])c(N)c1=O; aThr = C[C@H](O)[C@H](N)C(=O)O; NMeV = CN[C@H](C(=O)O)C(C)C; Sar = CNCC(=O)O

Tested on: C57BL/6 mice, intracerebral ependymoblastoma, median survival T/C
Assay: NCI In Vivo Anticancer Drug Screen. Data for tumor model Ependymoblastoma (intracerebral) in C57BL/6 mice
Conditions: endpoint: median survival time, schedule: Q01DX005 (ip), higher = longer survival
Experimental: The antitumor activity of compounds was measured in mice bearing transplantable tumors. Survival or tumor size were measured and the results are expressed as the measurement made in the treated group (T) divided by the measurement made in the vehicle treated control group (C). The tumor model used in this assay is Ependymoblastoma (intracerebral) in C57BL/6 mice

Measured: T/C

Cc1c2oc3c(C)ccc(C(=O)N[C@@H]4C(=O)N[C@H](C(C)C)C(=O)N5CCC[C@H]5C(=O)N(C)CC(=O)N(C)[C@@H](C(C)C)C(=O)O[C@H]4C)c3nc-2c(C(=O)N[C@@H]2C(=O)N[C@H](C(C)C)C(=O)N3CCC[C@H]3C(=O)N(C)CC(=O)N(C)[C@@H](C(C)C)C(=O)O[C@H]2C)c(N)c1=O (I: [aThr][dV]P[Sar][NMeV] / II: [aThr][dV]P[Sar][NMeV]; ester I:1-I:C, II:1-II:C; linker I:N-II:N via Actinocin(9to1))
inactive: dose: 12.5 micrograms/kg/injection, vehicle: saline 116 % of control | dose: 25.0 micrograms/kg/injection, vehicle: saline 97 % of control | dose: 50.0 micrograms/kg/injection, vehicle: saline 101 % of control

CCC(=O)O[C@H]1CC[C@H]2[C@@H]3CCC4=CC(=O)CC[C@]4(C)[C@H]3CC[C@]12C
inactive: dose: 8.0 mg/kg/injection, vehicle: saline 91 % of control and 98 % of control | dose: 16.0 mg/kg/injection, vehicle: saline 90 % of control and 102 % of control | dose: 32.0 mg/kg/injection, vehicle: saline 93 % of control and 100 % of control | dose: 64.0 mg/kg/injection, vehicle: saline 98 % of control and 99 % of control | dose: 128.0 mg/kg/injection, vehicle: saline 90 % of control | dose: 256.0 mg/kg/injection, vehicle: saline 89 % of control and 94 % of control | dose: 512.0 mg/kg/injection, vehicle: saline 91 % of control and 99 % of control

Nc1ccc(S(N)(=O)=O)cc1
inactive: dose: 45.0 mg/kg/injection, vehicle: saline with Tween-80 97 % of control | dose: 90.0 mg/kg/injection, vehicle: saline with Tween-80 88 % of control | dose: 180.0 mg/kg/injection, vehicle: saline with Tween-80 96 % of control | dose: 360.0 mg/kg/injection, vehicle: saline with Tween-80 100 % of control | dose: 720.0 mg/kg/injection, vehicle: saline with Tween-80 90 % of control

NC(CSC(c1ccccc1)(c1ccccc1)c1ccccc1)C(=O)O (stereo unspecified)
inactive: dose: 32.0 mg/kg/injection, vehicle: Klucel (hydroxypropylcellulose) (HPC) 99 % of control | dose: 64.0 mg/kg/injection, vehicle: Klucel (hydroxypropylcellulose) (HPC) 109 % of control

C[n+]1ccc(Nc2ccc(NC(=O)c3ccc(Nc4cc[n+](C)c5ccc(N)cc45)cc3)cc2)cc1
inactive: dose: 1.0 mg/kg/injection, vehicle: Klucel (hydroxypropylcellulose) (HPC) 95 % of control | dose: 2.0 mg/kg/injection, vehicle: Klucel (hydroxypropylcellulose) (HPC) 113 % of control | dose: 4.0 mg/kg/injection, vehicle: Klucel (hydroxypropylcellulose) (HPC) 108 % of control | dose: 8.0 mg/kg/injection, vehicle: Klucel (hydroxypropylcellulose) (HPC) 113 % of control
